Reference: US20250136607A1 (REGOR PHARMACEUTICALS, INC., priority 2021, published 2025)
pIC50: −log10 of the molar value.

Molecular target: Protein arginine deiminase 4 (PAD4) (Homo sapiens, UniProt Q9UM07)
Assay: PAD4 ammonia release assay
Format: biochemical
Settings: PAD4 ammonia release assay, BAEE substrate, 60 min at RT; read-out: Average IC50 Abs
How it was run: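 Ammonia release from BAEE substrate (2× mix 600 μM) was measured after 60 min at RT, following 15 min enzyme–compound preincubation (PAD4 2× 20 nM; pH 8.0 HEPES, 2 mM CaCl2, TCEP; 1.25% DMSO). Detection used OPA/DTT/EDTA for 120 min. % inhibition was taken versus reference-compound and DMSO controls; IC50 by four-parameter logistic fit.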

Sequence of Protein arginine deiminase 4 (PAD4) (Q9UM07 whole entry): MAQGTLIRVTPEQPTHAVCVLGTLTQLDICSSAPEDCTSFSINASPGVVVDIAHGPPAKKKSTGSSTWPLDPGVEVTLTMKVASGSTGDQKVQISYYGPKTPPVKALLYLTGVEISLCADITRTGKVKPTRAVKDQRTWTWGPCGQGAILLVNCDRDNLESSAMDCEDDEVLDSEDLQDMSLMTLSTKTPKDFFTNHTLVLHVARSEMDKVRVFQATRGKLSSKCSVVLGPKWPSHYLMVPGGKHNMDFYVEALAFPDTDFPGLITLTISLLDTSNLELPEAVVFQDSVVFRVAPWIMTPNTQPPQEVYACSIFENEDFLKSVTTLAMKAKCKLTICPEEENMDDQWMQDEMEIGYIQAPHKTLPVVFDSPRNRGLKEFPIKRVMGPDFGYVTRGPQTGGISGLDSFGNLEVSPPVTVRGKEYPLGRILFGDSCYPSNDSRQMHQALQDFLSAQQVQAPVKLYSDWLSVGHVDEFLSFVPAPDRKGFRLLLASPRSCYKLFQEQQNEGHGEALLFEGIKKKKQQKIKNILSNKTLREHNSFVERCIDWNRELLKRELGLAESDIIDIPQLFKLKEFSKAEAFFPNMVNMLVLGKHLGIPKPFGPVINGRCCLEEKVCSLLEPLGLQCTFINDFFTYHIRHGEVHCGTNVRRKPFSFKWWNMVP

Row | pIC50 | SMILES
1 | < 5.30 | CC[C@H]1[C@H](C)Nc2cccc3cc(-c4nc5cc(C(=O)N6C[C@H]7CC[C@@H]6[C@@H]7N)cc(F)c5n4C)n1c23 [Example 134, trans-((1R,4R,7R)-7-amino-2-azabicyclo[2.2.1]heptan-2-yl)(2-(3-ethyl-2-methyl-2,3-dihydro-1H-pyrrolo[1,2,3-de]quinoxalin-5-yl)-7-fluoro-1-methyl-1H-benzo[d]imidazol-5-yl)methanone]
2 | ≥ 7.00 | Cn1c(-c2cc3ccc(C(F)(F)F)c4c3n2C(C2CC2)CN4)nc2cc(C(=O)N3C[C@H]4CC[C@@H]3[C@@H]4N)cc(F)c21 (stereo partly drawn) [Example 121, [(1R,4R,7R)-7-amino-2-azabicyclo[2.2.1]heptan-2-yl]-[2-[11-cyclopropyl-7-(trifluoromethyl)-1,9-diazatricyclo[6.3.1.0^4,12]dodeca-2,4,6,8(12)-tetraen-2-yl]-7-fluoro-1-methyl-benzimidazol-5-yl]methanone]
3 | < 5.30 | CC[C@@H]1[C@H](C)Nc2cccc3cc(-c4nc5cc(C(=O)N6C[C@H]7CC[C@@H]6[C@@H]7N)cc(F)c5n4C)n1c23 (single isomer, unassigned) [Example 133]
4 | 6.30 to 7.00 | CCC1CNc2c(F)ccc3cc(-c4nc5cc(C(=O)N6C[C@H]7CC[C@@H]6[C@@H]7N)cc(F)c5n4C)n1c23 (stereo partly drawn) [Example 131, ((1R,4R,7R)-7-amino-2-azabicyclo[2.2.1]heptan-2-yl)(2-(3-ethyl-9-fluoro-2,3-dihydro-1H-pyrrolo[1,2,3-de]quinoxalin-5-yl)-7-fluoro-1-methyl-1H-benzo[d]imidazol-5-yl)methanone]
5 | 6.30 to 7.00 | Cn1c(-c2cc3ccc4c(c3n2CC2CC2)CCN4)nc2cc(C(=O)N3C[C@H]4CC[C@@H]3[C@@H]4N)cc(F)c21 [Example 143, ((1R,4R,7R)-7-amino-2-azabicyclo[2.2.1]heptan-2-yl)(2-(1-(cyclopropylmethyl)-1,6,7,8-tetrahydropyrrolo[2,3-e]indol-2-yl)-7-fluoro-1-methyl-1H-benzo[d]imidazol-5-yl)methanone]
6 | 6.30 to 7.00 | Cn1c(-c2cc3cc(C#N)cc4c3n2[C@@H](C2CC2)CN4)nc2cc(C(=O)N3C[C@H]4CC[C@@H]3[C@@H]4N)cc(F)c21 [Example 118, (S)-5-(5-((1R,4R,7R)-7-amino-2-azabicyclo[2.2.1]heptane-2-carbonyl)-7-fluoro-1-methyl-1H-benzo[d]imidazol-2-yl)-3-cyclopropyl-2,3-dihydro-1H-pyrrolo[1,2,3-de]quinoxaline-8-carbonitrile]
7 | 5.30 to 6.30 | Cc1nnc2c3c(ccn12)cc(-c1nc2cc(C(=O)N4C[C@H]5CC[C@@H]4[C@@H]5N)cc(F)c2n1C)n3CC1CC1 [Example 159, [(1R,4R,7R)-7-amino-2-azabicyclo[2.2.1]heptan-2-yl]-[2-[12-(cyclopropylmethyl)-5-methyl-3,4,6,12-tetrazatricyclo[7.3.0.02,6]dodeca-1(9), 2,4,7,10-pentaen-11-yl]-7-fluoro-1-methyl-benzimidazol-5-yl]methanone]
8 | 6.30 to 7.00 | CCC1CN(CCO)c2cccc3cc(-c4nc5cc(C(=O)N6C[C@H](N)C[C@@H](F)C6)cc(OC)c5n4C)n1c23 (stereo partly drawn) [Example 79, ((3R,5R)-3-amino-5-fluoropiperidin-1-yl)(2-(3-ethyl-1-(2-hydroxyethyl)-2,3-dihydro-1H-pyrrolo[1,2,3-de]quinoxalin-5-yl)-7-methoxy-1-methyl-1H-benzo[d]imidazol-5-yl)methanone]
9 | 5.30 to 6.30 | CCC1CN(CCCO)c2cccc3cc(-c4nc5cc(C(=O)N6C[C@H]7CC[C@@H]6[C@@H]7N)c(F)c(F)c5n4C)n1c23 (stereo partly drawn) [Example 78, ((1R,4R,7R)-7-amino-2-azabicyclo[2.2.1]heptan-2-yl)(2-(3-ethyl-1-(3-hydroxypropyl)-2,3-dihydro-1H-pyrrolo[1,2,3-de]quinoxalin-5-yl)-6,7-difluoro-1-methyl-1H-benzo[d]imidazol-5-yl)methanone]
10 | < 5.30 | Cn1c(-c2cc3c(C#N)ccc4c3n2[C@H](C2CC2)CN4)nc2cc(C(=O)N3C[C@H]4CC[C@@H]3[C@@H]4N)cc(F)c21 [Example 119, (R)-5-(5-((1R,4R,7R)-7-amino-2-azabicyclo[2.2.1]heptane-2-carbonyl)-7-fluoro-1-methyl-1H-benzo[d]imidazol-2-yl)-3-cyclopropyl-2,3-dihydro-1H-pyrrolo[1,2,3-de]quinoxaline-7-carbonitrile]
11 | 5.30 to 6.30 | CCC1CC(=O)c2cccc3cc(-c4nc5cc(C(=O)N6C[C@H]7CC[C@@H]6[C@@H]7N)cc(F)c5n4C)n1c23 (stereo partly drawn) [Example 139, 2-(5-((1R,4R,7R)-7-amino-2-azabicyclo[2.2.1]heptane-2-carbonyl)-7-fluoro-1-methyl-1H-benzo[d]imidazol-2-yl)-4-ethyl-4,5-dihydro-6H-pyrrolo[3,2,1-ij]quinolin-6-one]
12 | 5.30 to 6.30 | COc1cc(C(=O)N2C[C@H]3CC[C@@H]2[C@@H]3N)cc2nc(-c3cc4cccc5c4n3CCN5CCO)n(C)c12 [Example 11, ((1R,4R,7R)-7-amino-2-azabicyclo[2.2.1]heptan-2-yl)(2-(1-(2-hydroxyethyl)-2,3-dihydro-1H-pyrrolo[1,2,3-de]quinoxalin-5-yl)-7-methoxy-1-methyl-1H-benzo[d]imidazol-5-yl)methanone]
13 | ≥ 7.00 | Cn1c(-c2cc3cccc4c3n2C(C2CC2)CN4)nc2cc(C(=O)N3C[C@H]4CC[C@@H]3[C@@H]4N)cc(F)c21 (mixture of isomers) [Example 108, ((1R,4R,7R)-7-amino-2-azabicyclo[2.2.1]heptan-2-yl)(2-(3-cyclopropyl-2,3-dihydro-1H-pyrrolo[1,2,3-de]quinoxalin-5-yl)-7-fluoro-1-methyl-1H-benzo[d]imidazol-5-yl)methanone]

Second part, the compound before the results:

Row | SMILES | pIC50
14 | COc1cc(C(=O)N2CC[C@@H](F)[C@@H](N)C2)cc2nc(-c3cc4cccc5c4n3CCN5CCCO)n(C)c12 [Example 20, ((3S,4R)-3-amino-4-fluoropiperidin-1-yl)(2-(1-(3-hydroxypropyl)-2,3-dihydro-1H-pyrrolo[1,2,3-de]quinoxalin-5-yl)-7-methoxy-1-methyl-1H-benzo[d]imidazol-5-yl)methanone] | 5.30 to 6.30
15 | CCC1CN(CCCO)c2cccc3cc(-c4nc5cc(C(=O)N6C[C@H](N)C[C@@H](F)C6)cc(F)c5n4CC)n1c23 (stereo partly drawn) [Example 99, ((3R,5R)-3-amino-5-fluoropiperidin-1-yl)(1-ethyl-2-(3-ethyl-1-(3-hydroxypropyl)-2,3-dihydro-1H-pyrrolo[1,2,3-de]quinoxalin-5-yl)-7-fluoro-1H-benzo[d]imidazol-5-yl)methanone] | 6.30 to 7.00
16 | CCn1c(-c2cc3cccc4c3n2C(C)CN4CCCO)nc2cc(C(=O)N3C[C@H](N)C[C@@H](F)C3)cc(OC)c21 (stereo partly drawn) [Example 66, ((3R,5R)-3-amino-5-fluoropiperidin-1-yl)(1-ethyl-2-(1-(3-hydroxypropyl)-3-methyl-2,3-dihydro-1H-pyrrolo[1,2,3-de]quinoxalin-5-yl)-7-methoxy-1H-benzo[d]imidazol-5-yl)methanone] | 5.30 to 6.30
17 | COc1cc(C(=O)N2CCC[C@@H](N)C2)cc2nc(-c3cc4cccc5c4n3CC(=O)N5)n(C)c12 [Example 9, (R)-5-(5-(3-aminopiperidine-1-carbonyl)-7-methoxy-1-methyl-1H-benzo[d]imidazol-2-yl)-1H-pyrrolo[1,2,3-de]quinoxalin-2(3H)-one] | < 5.30
18 | COc1cc(C(=O)N2C[C@H](N)C[C@@H](F)C2)cc2nc(-c3cc4cccc5c4n3CCN5CCCO)n(OC)c12 [Example 63, ((3R,5R)-3-amino-5-fluoropiperidin-1-yl)(2-(1-(3-hydroxypropyl)-2,3-dihydro-1H-pyrrolo[1,2,3-de]quinoxalin-5-yl)-1,7-dimethoxy-1H-benzo[d]imidazol-5-yl)methanone] | < 5.30
19 | COc1cc(C(=O)N2CCC[C@@H](N)C2)cc2nc(-c3cc4cccc5c4n3CCC(=O)N5)n(C)c12 [Example 8, (R)-6-(5-(3-aminopiperidine-1-carbonyl)-7-methoxy-1-methyl-1H-benzo[d]imidazol-2-yl)-3,4-dihydro-[1,4]diazepino[3,2,1-hi]indol-2(1H)-one] | < 5.30
20 | COc1cc(C(=O)N2CC[C@@H](N)C2)cc2nc(-c3cc4cccc5c4n3CCN5CCCO)n(C)c12 [Example 15, (R)-(3-aminopyrrolidin-1-yl)(2-(1-(3-hydroxypropyl)-2,3-dihydro-1H-pyrrolo[1,2,3-de]quinoxalin-5-yl)-7-methoxy-1-methyl-1H-benzo[d]imidazol-5-yl)methanone] | < 5.30
21 | CCn1c(-c2cc3cccc4c3n2C(C)CN4CCCO)nc2cc(C(=O)N3C[C@H]4CC[C@@H]3[C@@H]4NC(=O)OC(C)(C)C)cc(OC)c21 (stereo partly drawn) [Example 67, tert-butyl ((1R,4R,7R)-2-(1-ethyl-2-(1-(3-hydroxypropyl)-3-methyl-2,3-dihydro-1H-pyrrolo[1,2,3-de]quinoxalin-5-yl)-7-methoxy-1H-benzo[d]imidazole-5-carbonyl)-2-azabicyclo[2.2.1]heptan-7-yl)carbamate] | < 5.30
22 | COc1cc(C(=O)N2CCC[C@@H](N)C2)cc2nc(-c3cc4cccc5c4n3CCN5C3CC(N)C3)n(C)c12 (stereo partly drawn) [Example 32, (R)-(2-(1-(3-aminocyclobutyl)-2,3-dihydro-1H-pyrrolo[1,2,3-de]quinoxalin-5-yl)-7-methoxy-1-methyl-1H-benzo[d]imidazol-5-yl)(3-aminopiperidin-1-yl)methanone] | 5.30 to 6.30
23 | COCCCN1CCn2c(-c3nc4cc(C(=O)N5CCC[C@@H](N)C5)cc(OC)c4n3C)cc3cccc1c32 [Example 21, (R)-(3-aminopiperidin-1-yl)(7-methoxy-2-(1-(3-methoxypropyl)-2,3-dihydro-1H-pyrrolo[1,2,3-de]quinoxalin-5-yl)-1-methyl-1H-benzo[d]imidazol-5-yl)methanone] | 5.30 to 6.30
